# Where a name gives a salt, the structure may show the parent alone. Read-outs that look alike come from different tables or passages of the source.
# What was measured:
# [1] = molecular target: T1, TBK1 (Homo sapiens, UniProt Q9UHD2); experiment: TBK Biochemical Assay; details: read-out: TBK1 IC50
# T1 sequence (Q9UHD2 1-729): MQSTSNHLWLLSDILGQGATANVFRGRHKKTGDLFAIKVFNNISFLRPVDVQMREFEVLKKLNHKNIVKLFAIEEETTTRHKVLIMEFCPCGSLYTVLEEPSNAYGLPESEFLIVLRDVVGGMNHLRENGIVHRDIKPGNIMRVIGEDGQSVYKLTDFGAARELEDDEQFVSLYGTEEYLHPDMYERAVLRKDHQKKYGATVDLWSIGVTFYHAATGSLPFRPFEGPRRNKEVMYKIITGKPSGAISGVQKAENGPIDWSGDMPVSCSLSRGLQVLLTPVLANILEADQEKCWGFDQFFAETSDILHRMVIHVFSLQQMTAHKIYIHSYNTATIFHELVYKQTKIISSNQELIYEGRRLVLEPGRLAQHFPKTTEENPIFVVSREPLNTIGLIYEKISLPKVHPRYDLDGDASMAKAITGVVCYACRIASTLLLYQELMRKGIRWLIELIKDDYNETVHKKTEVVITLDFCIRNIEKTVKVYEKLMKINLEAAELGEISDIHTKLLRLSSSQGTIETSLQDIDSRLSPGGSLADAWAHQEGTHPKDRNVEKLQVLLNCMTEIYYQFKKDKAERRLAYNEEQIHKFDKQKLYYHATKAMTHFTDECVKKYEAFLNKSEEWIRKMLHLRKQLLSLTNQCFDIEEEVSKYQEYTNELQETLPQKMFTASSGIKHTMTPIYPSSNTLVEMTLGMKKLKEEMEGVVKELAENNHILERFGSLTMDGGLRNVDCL
# In short: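 Caliper LabChip mobility-shift readout of substrate and product after 90 min of TBK1 reaction at 25° C and stop-buffer addition. Compounds tested in 1:4 serial dilution over 10 points from 30 uM final at 1% DMSO; staurosporine 10 uM final defines full inhibition.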
# [2] = molecular target: T2, IKKε (Homo sapiens, UniProt Q14164); experiment: IKKe Biochemical Assay; details: read-out: IKKε IC50
# T2 sequence (Q14164 1-716): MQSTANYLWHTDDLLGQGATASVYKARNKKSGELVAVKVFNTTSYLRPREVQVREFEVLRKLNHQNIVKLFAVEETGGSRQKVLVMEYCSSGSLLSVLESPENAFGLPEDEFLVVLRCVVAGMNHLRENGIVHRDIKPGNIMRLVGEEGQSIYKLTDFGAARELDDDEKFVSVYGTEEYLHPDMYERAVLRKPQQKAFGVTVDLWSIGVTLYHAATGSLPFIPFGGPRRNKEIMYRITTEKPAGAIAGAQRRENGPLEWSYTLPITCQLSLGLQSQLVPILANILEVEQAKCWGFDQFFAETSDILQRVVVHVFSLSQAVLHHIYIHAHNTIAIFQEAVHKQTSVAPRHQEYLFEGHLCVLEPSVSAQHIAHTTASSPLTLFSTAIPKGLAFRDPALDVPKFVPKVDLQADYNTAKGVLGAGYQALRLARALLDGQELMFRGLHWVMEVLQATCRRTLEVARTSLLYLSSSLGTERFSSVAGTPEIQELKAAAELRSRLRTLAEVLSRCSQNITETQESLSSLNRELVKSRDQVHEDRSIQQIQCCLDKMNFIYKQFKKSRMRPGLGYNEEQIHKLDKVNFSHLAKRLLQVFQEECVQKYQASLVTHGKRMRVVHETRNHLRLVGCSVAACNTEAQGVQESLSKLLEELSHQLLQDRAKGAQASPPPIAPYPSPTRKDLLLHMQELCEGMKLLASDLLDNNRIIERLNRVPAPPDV
# In short: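 Activity was measured as mobility-shift separation of phosphorylated from unphosphorylated substrate on a LabChip EZ Reader. Compound was titrated from 30 uM final in 10 points, 1:4 steps, with 1% DMSO, and enzyme plus substrate reacted 90 min at 25° C before stop buffer. Control wells held 10 uM staurosporine.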
# [3] = system: phosphorylation of the IRF-3 protein in MDA-MB-468 cells; experiment: pIRF3 immunocytochemistry cell based assay; details: Homo sapiens
# In short: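 After 2 h stimulation with Poly(I:C) (10 ug/ml), following 1 h compound pre-treatment (10-point, 3-fold dilution, top 10 uM), MDA-MB-468 cells were fixed and stained with anti-pIRF3 antibody. pIRF3 fluorescence was normalized to PI staining or cell count on an Acumen cytometer. IC50 curves were derived from this.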
# [4] = MDA-MB-468 cells, Poly(I:C) stimulation, read-out: pIRF3 IC50
# [5] = MDA-MB-468, read-out: pIRF3 IC50
Compound,IC50 [1],IC50 [2],"IC50 [3, 4]","IC50 [3, 5]"
"COc1cc(C(=O)N(C)C)cnc1-c1cc2ncc(OC)c(-c3ccc(OC4CCOCC4)c(C#N)n3)c2o1 [Compound 338, 6-[7-[6-cyano-5-(oxan-4-yloxy)pyridin-2-yl]-6-methoxyfuro[3,2-b]pyridin-2-yl]-5-methoxy-N,N-dimethylpyridine-3-carboxamide hydrochloride]",100 to 1000 nM,100 to 1000 nM,1000 to 5000 nM,–
"COc1cc(C(=O)NC2CC(CN(C)C)C2)ccc1-c1cc2nccc(-c3ccc(OC4CCOCC4)c(C#N)c3)c2o1 (stereo not drawn) [Compound 344, 4-[7-[3-cyano-4-(oxan-4-yloxy)phenyl]furo[3,2-b]pyridin-2-yl]-N-[3-[(dimethylamino)methyl]cyclobutyl]-3-methoxybenzamide]",< 100 nM,< 100 nM,100 to 1000 nM,–
"COc1cc(C(=O)NC2(CO)CCN(C)C2)ccc1-c1cc2nccc(-c3ccc(OC4CCOCC4)c(C#N)c3)c2o1 (stereo not drawn) [Compound 345, 4-[7-[3-cyano-4-(oxan-4-yloxy)phenyl]furo[3,2-b]pyridin-2-yl]-N-[3-(hydroxymethyl)-1-methylpyrrolidin-3-yl]-3-methoxybenzamide]",< 100 nM,< 100 nM,100 to 1000 nM,–
"COc1cc(C(=O)N[C@H]2COC[C@@H]2N(C)C)ccc1-c1cc2nccc(-c3ccc(OC4CCOCC4)c(C#N)c3)c2o1 [Compound 346, 4-[7-[3-cyano-4-(oxan-4-yloxy)phenyl]furo[3,2-b]pyridin-2-yl]-N-[(3R,4R)-4-(dimethylamino)oxolan-3-yl]-3-methoxy benzamide]",< 100 nM,< 100 nM,–,100 to 1000 nM
"COc1cc(C(=O)NC2CCN(C)CC2O)ccc1-c1cc2nccc(-c3ccc(OC4CCOCC4)c(C#N)c3)c2o1 (stereo not drawn) [Compound 347, 4-[7-[3-cyano-4-(oxan-4-yloxy)phenyl]furo[3,2-b]pyridin-2-yl]-N-(3-hydroxy-1-methylpiperidin-4-yl)-3-methoxybenzamide]",< 100 nM,< 100 nM,100 to 1000 nM,–
"COc1cc(C(=O)NC2CN(C)CCC2O)ccc1-c1cc2nccc(-c3ccc(OC4CCOCC4)c(C#N)c3)c2o1 (stereo not drawn) [Compound 348, 4-[7-[3-cyano-4-(oxan-4-yloxy)phenyl]furo[3,2-b]pyridin-2-yl]-N-(4-hydroxy-1-methylpiperidin-3-yl)-3-methoxybenzamide]",< 100 nM,< 100 nM,100 to 1000 nM,–
"COc1cc(C(=O)NC2(C#N)CCN(C)C2)ccc1-c1cc2nccc(-c3ccc(OC4CCOCC4)c(C#N)c3)c2o1 (stereo not drawn) [Compound 349, N-(3-cyano-1-methylpyrrolidin-3-yl)-4-[7-[3-cyano-4-(oxan-4-yloxy)phenyl]furo[3,2-b]pyridin-2-yl]-3-methoxybenzamide]",< 100 nM,< 100 nM,100 to 1000 nM,–
"COc1cc(C(=O)N(C)C)cnc1-c1cc2ncc(F)c(-c3ccc(NC4CCOCC4)c(C#N)n3)c2o1 [Compound 352, 6-(7-[6-cyano-5-[(oxan-4-yl)amino]pyridin-2-yl]-6-fluorofuro[3,2-b]pyridin-2-yl)-5-methoxy-N,N-dimethylpyridine-3-carboxamide]",100 to 1000 nM,1000 to 5000 nM,1000 to 5000 nM,–
"COc1cc(C(=O)NC2CN(CC(C)C)C2)ccc1-c1cc2nccc(-c3ccc(OC4CCOCC4)c(C#N)c3)c2o1 [Compound 355, 4-[7-[3-cyano-4-(oxan-4-yloxy)phenyl]furo[3,2-b]pyridin-2-yl]-3-methoxy-N-[1-(2-methylpropyl)azetidin-3-yl]benzamide]",< 100 nM,< 100 nM,–,100 to 1000 nM
"COc1cc(C(=O)N(C)CCO)cnc1-c1cc2nccc(-c3ccc(NC4CCOCC4)c(C#N)n3)c2o1 [Compound 356, 6-(7-[6-cyano-5-[(oxan-4-yl)amino]pyridin-2-yl]furo[3,2-b]pyridin-2-yl)-N-(2-hydroxyethyl)-5-methoxy-N-methylpyridine-3-carboxamide]",< 100 nM,< 100 nM,100 to 1000 nM,–
"COc1cc(C(=O)NC2CN(C(C)C)C2)ccc1-c1cc2nccc(-c3ccc(OC4CCOCC4)c(C#N)c3)c2o1 [Compound 364, 4-(7-(3-cyano-4-(tetrahydro-2H-pyran-4-yloxy)phenyl)furo[3,2-b]pyridin-2-yl)-N-(1-isopropylazetidin-3-yl)-3-methoxybenzamide]",< 100 nM,< 100 nM,100 to 1000 nM,–
"COc1cc(C(=O)NC2(C)CCCN(C)C2)ccc1-c1cc2nccc(-c3ccc(OC4CCOCC4)c(C#N)c3)c2o1 (stereo not drawn) [Compound 367, 4-[7-[3-cyano-4-(oxan-4-yloxy)phenyl]furo[3,2-b]pyridin-2-yl]-N-(1,3-dimethylpiperidin-3-yl)-3-methoxybenzamide]",< 100 nM,< 100 nM,< 100 nM,–
"COc1cc(C(=O)NC2(CN(C)C)CCC2)ccc1-c1cc2nccc(-c3ccc(OC4CCOCC4)c(C#N)c3)c2o1 [Compound 368, 4-[7-[3-cyano-4-(oxan-4-yloxy)phenyl]furo[3,2-b]pyridin-2-yl]-N-[1-[(dimethylamino)methyl]cyclobutyl]-3-methoxybenzamide]",< 100 nM,< 100 nM,100 to 1000 nM,–
"COc1cc(C(=O)NC2CCC(=O)NC2C)ccc1-c1cc2nccc(-c3ccc(OC4CCOCC4)c(C#N)c3)c2o1 (stereo not drawn) [Compound 369, 4-[7-[3-cyano-4-(oxan-4-yloxy)phenyl]furo[3,2-b]pyridin-2-yl]-3-methoxy-N-(2-methyl-6-oxopiperidin-3-yl)benzamide]",< 100 nM,< 100 nM,100 to 1000 nM,–
"COc1cc(C(=O)NC2(C)CCN(C)CC2)ccc1-c1cc2nccc(-c3ccc(OC4CCOCC4)c(C#N)c3)c2o1 [Compound 370, 4-[7-[3-cyano-4-(oxan-4-yloxy)phenyl]furo[3,2-b]pyridin-2-yl]-N-(1,4-dimethylpiperidin-4-yl)-3-methoxybenzamide hydrochloride]",< 100 nM,< 100 nM,100 to 1000 nM,–
"COc1cc(C(=O)NC2CC(N3CCCC3)C2)ccc1-c1cc2nccc(-c3ccc(OC4CCOCC4)c(C#N)c3)c2o1 (stereo not drawn) [Compound 371, 4-(7-(3-cyano-4-(tetrahydro-2H-pyran-4-yloxy)phenyl)furo[3,2-b]pyridin-2-yl)-3-methoxy-N-(3-(pyrrolidin-1-yl)cyclobutyl)benzamide]",< 100 nM,< 100 nM,–,100 to 1000 nM
"COc1cc(C(=O)N[C@@]23C[C@@H]2CN(C(C)C)C3)ccc1-c1cc2nccc(-c3ccc(OC4CCOCC4)c(C#N)c3)c2o1 [Compound 372, 4-[7-[3-cyano-4-(oxan-4-yloxy)phenyl]furo[3,2-b]pyridin-2-yl]-3-methoxy-N-[(1S,5R)-3-(propan-2-yl)-3-azabicyclo[3.1.0]hexan-1-yl]benzamide]",< 100 nM,< 100 nM,–,100 to 1000 nM
"COc1cc(C(=O)N[C@@H]2CC[C@@H]3CN(C)C[C@@H]32)ccc1-c1cc2nccc(-c3ccc(OC4CCOCC4)c(C#N)c3)c2o1 [Compound 373, N-[(3aR,4R,6aS)-2-methyl-octahydrocyclopenta[c]pyrrol-4-yl]-4-[7-[3-cyano-4-(oxan-4-yloxy)phenyl]furo[3,2-b]pyridin-2-yl]-3-methoxybenzamide]",< 100 nM,< 100 nM,< 100 nM,–

# Reference: patent publication US10428080B2, “TBK/IKK inhibitor compounds and uses thereof” (Merck Patent GmbH, priority 2015, dated 2019)
